Reference: ChEMBL document CHEMBL5260804 (ACS Med Chem Lett, 2017)

How the values were obtained:
[1] = biological target: Matrix protein 2 (Influenza A virus) (UniProt P06821); assay: Inhibition of full length influenza A virus A/Udorn/72 (H3N2) M2 expressed in Xenopus laevis oocytes assessed as inhibition of channel current at 100 uM measured after 5 mins by two-electrode voltage clamp assay relative to control; type: cell-based; settings: Oocyte
[2] = test system: Influenza A virus; assay: Antiviral activity against amantadine-sensitive influenza A virus A/Udorn/72 (H3N2) infected in MDCK cells assessed as inhibition of virus-induced cytopathic effect incubated for 48 hrs by crystal violet/neutral red staining based assay; type: functional, organism-based
[3] = biological target: Matrix protein 2 (Influenza A virus) (UniProt P06821); assay: Inhibition of full length influenza A virus A/Udorn/72 (H3N2) M2 expressed in Xenopus laevis oocytes assessed as inhibition of channel current at 100 uM measured after 2 mins by two-electrode voltage clamp assay relative to control; type: cell-based; settings: Oocyte
[4] = biological target: Matrix protein 2 (Influenza A virus) (UniProt P06821); settings: A/Udorn/72 (H3N2)
Description: Binding affinity to C-terminal amidated influenza A virus A/Udorn/72 (H3N2) M2 transmembrane domain (22 to 46 residues) in DPC micelles at pH 8 assessed as gibbs free energy change by ITC analysis

[5] = biological target: Matrix protein 2 (Influenza A virus) (UniProt P06821); settings: A/Udorn/72 (H3N2); remark: listed apart in the source
Description: Binding affinity to C-terminal amidated influenza A virus A/Udorn/72 (H3N2) M2 transmembrane domain (22 to 46 residues) in DPC micelles at pH 8 assessed as change in enthalpy by ITC analysis

[6] = biological target: Matrix protein 2 (Influenza A virus) (UniProt P06821); assay: Binding affinity to C-terminal amidated influenza A virus A/Udorn/72 (H3N2) M2 transmembrane domain (22 to 46 residues) in DPC micelles at pH 8 assessed as change in entropy by ITC analysis
[7] = biological target: Matrix protein 2 (Influenza A virus, UniProt P06821)
Sequence of Matrix protein 2 (P06821 whole entry): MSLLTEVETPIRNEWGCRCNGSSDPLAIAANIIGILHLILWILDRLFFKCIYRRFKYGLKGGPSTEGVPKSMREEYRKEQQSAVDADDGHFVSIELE
Description: Binding affinity to C-terminal amidated influenza A virus A/Udorn/72 (H3N2) M2 transmembrane domain (22 to 46 residues) in DPC micelles at pH 8 assessed as dissociation constant by ITC analysis

Sequence of Matrix protein 2 (Influenza A virus) (P06821 whole entry, the tested form may be a part): as the sequence (P06821 whole entry) above

Row | Compound | inhibition [1] | IC50 [2] | inhibition [3] | deltaG [4] | deltaH [5] | -TdeltaS [6] | Kd [7]
1 | C[C@@H](N)C12CC3CC(CC(C3)C1)C2 | 95% | 50 nM | 93% | -8.97 kcal/mol | -7.54 kcal/mol | -1.42 kcal/mol | 
2 | CC(C)(N)C12CC3CC(CC(C3)C1)C2 | 96% | 40 nM | 90% | -9.3 kcal/mol | -4.19 kcal/mol | -5.12 kcal/mol | 130 nM
3 | NC12CC3CC(CC(C3)C1)C2 [AMANTADINE] | 95% | 330 nM |  | -7.77 kcal/mol | -6.66 kcal/mol | -1.11 kcal/mol | 
4 | CC(N)C12CC3CC(CC(C3)C1)C2 (racemic) [RIMANTADINE] | 96% | 50 nM | 96% |  | -7.6 kcal/mol | -1.04 kcal/mol | 
5 | C[C@H](N)C12CC3CC(CC(C3)C1)C2 | 96% | 60 nM | 95% |  | -7.73 kcal/mol | -1.15 kcal/mol | 
